According to PubChem BioAssay (NCI):
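Tested at 5 concentrations; 48 h exposure; 96-well plates; endpoints linearly interpolated, else capped at highest concentration. GI50 = concentration required for 50% inhibition of growth. TGI denotes the concentration required for complete inhibition of growth.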

How the values were obtained:
Assay in all cases: NCI anticancer screen, dose series, 48 h
CAKI-1 renal = test system: CAKI-1 renal
M14 melanoma = test system: M14 melanoma
NCI-H23 lung = test system: NCI-H23 lung
NCI/ADR-RES ovarian = test system: NCI/ADR-RES ovarian
OVCAR-3 ovarian = test system: OVCAR-3 ovarian
OVCAR-5 ovarian = test system: OVCAR-5 ovarian
OVCAR-8 ovarian = test system: OVCAR-8 ovarian
SK-MEL-28 melanoma = test system: SK-MEL-28 melanoma
U251 CNS = test system: U251 CNS
UACC-62 melanoma = test system: UACC-62 melanoma

SMILES | GI50 (CAKI-1 renal) [µM] | TGI (CAKI-1 renal) [µM] | GI50 (M14 melanoma) [µM] | TGI (M14 melanoma) [µM] | GI50 (NCI-H23 lung) [µM] | TGI (NCI-H23 lung) [µM] | GI50 (NCI/ADR-RES ovarian) [µM] | TGI (NCI/ADR-RES ovarian) [µM] | GI50 (OVCAR-3 ovarian) [µM] | GI50 (OVCAR-5 ovarian) [µM] | TGI (OVCAR-5 ovarian) [µM] | GI50 (OVCAR-8 ovarian) [µM] | TGI (OVCAR-8 ovarian) [µM] | GI50 (SK-MEL-28 melanoma) [µM] | TGI (SK-MEL-28 melanoma) [µM] | GI50 (U251 CNS) [µM] | TGI (U251 CNS) [µM] | GI50 (UACC-62 melanoma) [µM] | TGI (UACC-62 melanoma) [µM] | TGI (OVCAR-3 ovarian) [µM]
C[C@H]1[C@@H](OCC(CO[C@H]2O[C@@H]3O[C@@]4(C)CC[C@H]5[C@H](C)CC[C@@H]([C@H]2C)[C@@]35OO4)=NOCC(=O)O)OC2O[C@@]3(C)CC[C@H]4[C@H](C)CC[C@@H]1[C@@]24OO3 (some centres undefined) | 0.117 | 3.12 | 0.205 | 18.8 | < 0.0283 | 18.1 | 0.525 | 16.4 | < 0.0188 | 0.497 | 30.3 | 0.0332 | 16.4 | 0.756 | 20.6 | < 0.0114 | 14 | 0.0336 | 15.5 | 
C=C(C)[C@H]1CC/C(C)=C/CCC(C)C(=O)CC/C(CO)=C\[C@@H]1O (some centres undefined) | 65.9 | > 100 | 87.7 | > 100 | > 100 | > 100 | > 100 | > 100 | > 100 | > 100 | > 100 | > 100 | > 100 | 7.9 | > 100 | 90.3 | > 100 | 67.6 | > 100 | > 100
Cn1cnc([N+](=O)[O-])c1Sc1ncnc2c1ncn2C1OC(CO)C(O)C1O (centres undefined) | 3.53 | > 100 | 2.29 | > 100 | 4.8 | > 100 | 4.84 | > 100 | 3.93 | 42 | > 100 | 6.19 | > 100 | 72.2 | > 100 | 8.79 | > 100 | 5.98 | > 100 | > 100
CCNCCNc1cc(-c2ccc(F)cc2)c(C#N)c2nc3ccccc3n12 | 4 | 15.4 | 1.97 | 3.63 | 13.7 | 29 | 6.34 | 25.1 | 1.97 | 4.45 | 15.9 | 4.52 | 15.8 | 1.86 | 3.59 | 2.41 | 5.05 | 1.9 | 3.95 | 4.36
CC(C)C(N)(C(=O)O)c1ccccc1 (centres undefined) |  | > 100 |  | > 100 |  | > 100 |  | > 100 |  |  | > 100 |  | > 100 |  | > 100 |  | > 100 |  | > 100 | > 100
Oc1c(CN2CCCC2)cc(COCc2ccccc2)c2cccnc12 | 0.26 | 14.2 | 1.11 | 10.1 | 2.89 | 11.6 | 0.152 | 0.761 | 2.13 | 4.1 | 21.2 | 2.53 | 12 | 3.49 | 18.6 | 2.07 | 13.3 | 1.81 | 7.7 | 13.3
C=C(C)C1/C=C(/C(C)C)CC[C@]2(C)O[C@@H]2CC[C@H](C)CC1=O (some centres undefined) | 35.3 | > 100 | 49.6 | > 100 | 87 | > 100 | 87.4 | > 100 | 25.4 | > 100 | > 100 | 58.3 | > 100 | > 100 | > 100 | 54.7 | > 100 | 80.2 | > 100 | 81.1
CCNCC(O)c1ccc(N)c([N+](=O)[O-])c1 (centres undefined) |  | > 100 |  | > 100 |  | > 100 |  | > 100 |  |  | > 100 |  | > 100 |  | > 100 |  | > 100 |  | > 100 | > 100
COc1ccc(/C=C\c2cc(OC)c(OC)c(OC)c2)c(NS(=O)(=O)c2ccc(C)cc2)c1O | 0.0938 | > 100 | 0.0307 | > 33.2 | 0.0451 | 49.6 | 0.169 | 14.7 | 0.03 | 0.15 | > 100 | 0.0498 | > 100 | 0.602 | > 96.2 | 0.0418 | > 100 | 0.0428 | > 100 | 1.65
C#Cc1ccc(NC(=O)c2ccc(/C=C/C(=O)c3nccn3C)cc2)cc1 | 0.51 | 1.34 | 0.47 | 0.96 | 0.46 | 1.06 | 0.77 | 25 | 0.416 | 0.488 | 1.19 | 0.717 | 8.79 | 0.521 | 1.24 | 0.347 | 0.757 | 0.481 | 1.12 | 0.792
